Where two headings read alike, the source gives them in different places.
Tested on: secretion of hydrochloric acid in the stomach (Shay ulcers)
Assay: Antisecretory activity - Shay ulcers (pylorus-ligated rat)
Type: in vivo
Details: for ED40 / Emax: Rattus norvegicus; for ED40 / Emax / ED50: 2 h; for ED40: footnote 1: ED40 value; for Emax: α=1 represents 100% inhibition of gastric acid hypersecretion, read-out: α (approximate value of intrinsic activity); for PR (potency ratio in comparison with Omeprazole): ratio of mean ED50 on the 3 parameters of test compound to mean ED50 of omeprazole; for ED50: rat, pylorus ligation, intraduodenal or intravenous
Protocol: Antisecretory activity--Shay ulcers The gastric secretory inhibitory activity of the compounds of general formula (I) was determined in case of hypersecretion induced in the rat by ligation of gastroduodenal junction according to the procedure described by Shay (Shay H. et al, Gasgroenterology 5, 43-61, 1945). […] Thereafter, they were fasted for 24 hours, with water ad libitum, which period was sufficient to assure a good gastric emptying, then laparectomized under light ether anesthesia, so as to allow to effect a pylorus ligation as closer as possible to the gastroduodenal junction. Two hours after the ligation, the animals were killed by means of an ether excess and stomaches were removed. Gastric contents were recovered, after filtration through a gauze, and placed in graduated test-tubes and centrifuged at 3000×g for 15 minutes. The following parameters were evaluated on the surnatant: volume (ml); pH; free acidity by conversion of pH into H^+ μEq by means of Moore table (Ann. New York Acad. Sci. 1967, 866-874); titrable acidity, by titration of an amount with 0.02N NaOH, using phenolphtalein as the indicator. […] The results were expressed as percent inhibition of hypersecretion induced by pylorus ligation in the control rats. The obtained results are reported in table 3 as: ED50 (μmol/kg) calculated on the basis of the equation of the linear tract of does-effect curves obtained with the test compounds on volume, free and titrable acidities; […]

[1] = free acid output, read-out: ED50 free acid output
[2] = secretion volume, read-out: ED50 volume
[3] = titratable acid output, read-out: ED50 titratable acid output

Row | Compound | ED40 (free acid output, read-out: ED40 free acid output) [µmol/kg] | ED40 (secretion volume, read-out: ED40 volume) [µmol/kg] | ED40 (titratable acid output, read-out: ED40 titratable acid output) [µmol/kg] | Emax [%] | PR (potency ratio in comparison with Omeprazole) | ED50 [1] [µmol/kg] | ED50 [2] [µmol/kg] | ED50 [3] [µmol/kg]
1 | COc1c(C)cnc(CSc2nccn2C)c1C [VIII, 1-methyl-2-[2'-(3' ,5 '-dimethyl-4'-methoxypyridyl)methylthio]imidazole.2HCl] | 0.03 | 0.12 | 0.03 | 40 to 60 | 0,02 | – | – | –
2 | Cn1ccnc1SCc1nc2ccccc2[nH]1 [IX, 1-methyl-2-(2'-benzimidazolylmethylthio)imidazole.2HCl] | – | – | – | 40 to 60 | 17,2 | 53.2 | 65 | 24.7
3 | COc1ccc(C)nc1C[S+]([O-])c1ncnc2[nH]cnc12 (centres unmarked) [XLVI, 6-[2'-(6'-methyl-3'-methoxypyridyl)methylsulfinyl]purine] | – | – | – | 100 | 15,8 | 33.1 | 52 | 45.8
4 | CN(C)c1ccccc1CSc1nccn1-c1ccc(Cl)cc1 [XXXIV, 1-(4'-chlorophenyl)-2-[2'-(N,N-dimethylanilyl)methylthio]imidazole. 2HCl] | – | – | – | 100 | 3,9 | 6.1 | 24.6 | 1.3
5 | CN(C)c1ccccc1CSc1nccn1-c1ccccc1F [XXXII, 1-(2'-fluorophenyl)-2-[2'-(N,N-dimethylanilyl)methylthio]imidazole] | – | – | – | 100 | 10,1 | 25.5 | 34.2 | 23.9
6 | Cn1ccnc1SCc1ccc2ccccc2n1 [XII, 1-methyl-2-(2'-quinolylmethylthio)imidazole.2HCl] | – | – | – | 100 | 14,0 | 34.7 | 43.5 | 38.1
7 | CN(C)c1ccccc1CSc1nc2cscc2[nH]1 [LII, 2-[2'-(N,N-dimethylanilyl)methylthio)thieno-[3,4-d]-imidazole] | – | – | – | 50 to 80 | 19,6 | 45 | 90 | 28
8 | CN(C)c1ccccc1CSc1nc2cnccc2[nH]1 [L, 2-[2'-(N,N-dimethylanilyl)methylthio]imidazo-[4,5-c]-pyridine] | – | – | – | 100 | 3,8 | 5.5 | 19.7 | 6.9
9 | c1ccc(-n2ccnc2SCc2ccc3ccccc3n2)cc1 [XXXVI, 1-phenyl-2-[2'-(quinolyl)methylthio]imidazole] | – | – | – | 60 to 70 | 30,1 | 50 | 120 | 80
10 | COc1ccccc1-n1ccnc1SCc1ccccc1N(C)C [XXXIII, 1-(2'-methoxyphenyl)-2-[2'-(N,N-dimethylanilyl)methylthio]imidazole] | – | – | – | 70 to 80 | 0,75 | 1.2 | 3 | 2
11 | CN(C)c1ccccc1CSc1nccn1-c1ccccc1C(F)(F)F [XXXV, 1-(2'-trifluoromethylphenyl)-2-[2'-(N,N-dimethylanilyl)methylthio]imidazole. 2HCl] | – | – | – | 100 | 4,6 | 8.3 | 24.9 | 5
12 | Cn1ccnc1[S+]([O-])Cc1nc2ccccc2[nH]1 (centres unmarked) [XVII, 1-methyl-2-[2'-benzimidazolylmethylsulfinyl)imidazole] | – | – | – | 70 to 90 | 39,7 | 84.4 | 134 | 109
13 | Cn1ccnc1[S+]([O-])Cc1ccc2ccccc2n1 (centres unmarked) [XVIII, 1-methyl-2-(2'-quinolylmethylsulfinyl)imidazole] | – | – | – | 100 | 14,0 | 36.9 | 40.3 | 39.4

From patent US5066652A, “Thiomethyl and sulfinylmethyl derivatives having gastric acid antisectetory activity and pharmaceutical compositions containing them” (Chiesi Farmaceutici S.p.A., priority 1988, dated 1991)
